The test system of one test is E11.5 AGM cells. As to the kind of experiment: Hematopoietic colony formation unit (CFU) and FACS assays on E11.5 AGM cells. Format: cell-based, mouse. The note with it: substance alone vs. control. On the procedure: (§1) Pulsating blood vessels like conditions were stimulated in vitro using FLEXCELL FX-4000 cell stretching bioreactor machine. To analyze roles of pharmacological targets in regulating the endothelial-to-HSC transition, mouse embryo-derived AGM or whole mouse embryo were exposed ex vivo with biomechanical stretching, chemicals, or drugs. Next, hematopoietic colony formation assays were performed by incubating mouse AGM-derived cells in StemCell M3434 media for seven days. Serial transplantation of AGM-derived HSCs in lethally irradiated SJL mice were performed. The stem cell frequency upon biomechanical stretching was analyzed using a limiting dilution assay. To characterize properties of AGM-HSC-derived blood cells in primary transplants, percentage chimerism and reconstitution was measured using FACS, globin transcripts were analyzed using quantitative reverse transcriptase-PCR, myeloperoxidase amount was measured using PICOKINE ELISA kit, TCR-β rearrangement was analyzed using PCR for TCR-β locus, pre-immune IG detection was analyzed using Thermo-Fisher Mouse Ig Isotyping kit, and delayed-type hypersensitivity was analyzed by injecting sheep RBC (Rockland Immunochemicals) in the footpad of pre-sensitized mice.
E11.5 AGM were harvested from C57BL6/J Cd45.2 mouse embryos, and a single cell suspension of a three-embryo equivalent of cells was seeded on each well of a BioFlex six-well culture plate (FlexCell). We cultured cells overnight with the application of cyclic strain (Flexcell® FX4000™ Tension System) and/or treatment with chemical modulators (25-50 μM Yoda1, 1 μM Nanaomycin, 100 μM GdCl3, 1 uM GsMTx4, 5-20 μM 4αPDD, 10 uM GSK205). Next, harvested cells were used to perform transplant, fluorescence-activated cell sorting (FACS) analysis, and colony-forming unit (CFU) assays.
E11.5 mouse embryos were harvested from the uterus of the time-mated pregnant female, into sterile glass vials containing FBS, 1 mM glucose, 1% Penicillin-Streptomycin, and/or the selected chemical modulator (25-50 μM Yoda1, 1 μM Nanaomycin, 5-20 μM 4αPDD, or 10 uM GSK205). We placed glass vials in the ex vivo incubator (BTC Engineering, Cambridge, UK) consisting of a roller apparatus (rotating ˜30 rpm), constant gas supply (21% O2, 5% CO2, balance N2) and constant temperature at 37° C. After 24 hours, AGM were harvested to analyze the formation of hematopoietic cells by FACS and CFU assays.
For CFU assays, cells from AGM explant or ex vivo were plated in METHOCULT GF M3434 media (StemCell Technologies). Seven days after seeding, we analyzed their capacity to make granulocyte, erythroid, macrophage, megakaryocyte (GEMM), granulocyte macrophage (GM), granulocyte (G), macrophage (M), and erythroid (E) colonies.
AGM cells from explants and ex vivo were stained with Sca1-Pacific-Blue (E13-161.7, Biolegend) and Flk1-APC-Cy7 (Avas 12α1, BD). Blood from transplanted mice was stained with the following antibody cocktail: Cd45.2-Pacific-Blue (104, Biolegend), Cd45.1-FITC (A20, Biolegend), Cd3-PE (145-2C11, Biolegend), Cd8-PE (53-6.7, Biolegend), Mac1-APC (M1/70, Biolegend), Gr1-APC (108412, Biolegend), Cd19-APC-CY7 (6D5, Biolegend), B220-APC-CY7 (RA3-6B2, Biolegend).

Test [1] concerns primary transplant (recipient) mice. The test can be described thus: Delayed-type hypersensitivity assay in primary transplant mice. The class given is in vivo, mouse. The note with it: primary transplant of treated E11.5 AGM. The protocol:
as §1, with “mice. […]” for “mice.”

Another test has as its system Dnmt3b. The test can be described thus: Dnmt3b protein level in nuclear fractions of E11.5 AGM cells (EPIQUIK assay kit). The class given is cell-based, mouse. The following applies: nuclear fractions of treated E11.5 AGM cells. On the procedure:
(§2) RNA-sequencing analyses were performed to measure gene expression patterns in mouse AGM treated with cyclic strain or pharmacological modulators. Using computational algorithms, hierarchical clustering was performed of differentially expressed genes as well as measured their overrepresented biological processes and pathways. Gene expression clusters of differentially expressed genes were analyzed and their mean expression level across cell populations compared. Next, Venn comparison of up- and down-genes was constructed to analyze candidate(s) important for cyclic strain- or pharmacological modulator(s)-mediated the endothelial-to-HSC transition. Furthermore, Dnmt3b and Dnmt3a protein expressions were analyzed in nuclear fractions of mouse AGM cells using EPIQUIK methyltransferase assay kits. Data are presented as mean±s.d. unless otherwise noted. Statistical analyses were performed by paired or un-paired Student's t-tests. Significance was set at P<0.05.
(§3) Nuclear extracts from AGM explants were harvested using an EPIQUIK Nuclear Extraction Kit (Epigentek Group Inc.). Dnmt3b and Dnmt3a protein levels were analyzed using a colorimetric EPIQUIK methyltransferase Assay Kit (Epigentek Group Inc.), according to the manufacturer's instructions. Concentration of Dnmt3b and Dnmt3a is relative to 1 μg of nuclear extract proteins.

The subject of the next test is Dnmt3a. As to the kind of experiment: Dnmt3a protein level in nuclear fractions of E11.5 AGM cells (EPIQUIK assay kit). The class given is cell-based, mouse. The following applies: nuclear fractions of treated E11.5 AGM cells. The protocol:
as §2, §3

“Also recorded” adds a separate entry of the source.

The results in this text go back to US20230212517A1, “METHODS FOR GENERATING HEMATOPOIETIC STEM CELLS” (The Brigham and Women's Hospital, Inc., priority 2018, published 2023).

In the case of `Clc1cccc(Cl)c1CSc1nnc(-c2cnccn2)s1` [Yoda1, 2-[5-[[(2,6-Dichlorophenyl)methyl]thio]-1,3,4-thiadiazol-2-yl]-pyrazine], the “hematopoietic colony formation (endothelial-to-hematopoietic transition)” value in the test on E11.5 AGM cells is on record as “stimulates the endothelial-to-hematopoietic transition”. Further, the “T-cell mediated immune response (footpad, sheep RBC challenge)” value in test [1] was “possess T-cell mediated immune response”. For the same compound, the “Dnmt3b protein expression level” value in the test with Dnmt3b is listed as “specifically stimulates Dnmt3b protein expression levels”. In addition, the “Dnmt3a protein expression level” value in the test on Dnmt3a was “not Dnmt3a; also recorded: without impacting the expression of Dnmt3a”.
